In patent US20160355530A1, “HEPATITIS C INHIBITORS AND USES THEREOF” (AbbVie Inc., priority 2010, published 2016):
pEC50, pIC50: −log10 of the molar value. Where two headings read alike, the source gives them in different places.

What was measured:
[1] = target: T1, HCV NS5B polymerase 1a-H77 (Hepatitis C virus genotype 1a, UniProt P27958); experiment: biochemical; design: species or system HCV genotype 1a; conditions: enzyme, strain 1a H77; read-out: HCV Polymerase Strain 1a H77 IC50
T1 construct: six-histidine tag; made in house; host or cells: E. coli
T1 sequence (P27958 2421-2990): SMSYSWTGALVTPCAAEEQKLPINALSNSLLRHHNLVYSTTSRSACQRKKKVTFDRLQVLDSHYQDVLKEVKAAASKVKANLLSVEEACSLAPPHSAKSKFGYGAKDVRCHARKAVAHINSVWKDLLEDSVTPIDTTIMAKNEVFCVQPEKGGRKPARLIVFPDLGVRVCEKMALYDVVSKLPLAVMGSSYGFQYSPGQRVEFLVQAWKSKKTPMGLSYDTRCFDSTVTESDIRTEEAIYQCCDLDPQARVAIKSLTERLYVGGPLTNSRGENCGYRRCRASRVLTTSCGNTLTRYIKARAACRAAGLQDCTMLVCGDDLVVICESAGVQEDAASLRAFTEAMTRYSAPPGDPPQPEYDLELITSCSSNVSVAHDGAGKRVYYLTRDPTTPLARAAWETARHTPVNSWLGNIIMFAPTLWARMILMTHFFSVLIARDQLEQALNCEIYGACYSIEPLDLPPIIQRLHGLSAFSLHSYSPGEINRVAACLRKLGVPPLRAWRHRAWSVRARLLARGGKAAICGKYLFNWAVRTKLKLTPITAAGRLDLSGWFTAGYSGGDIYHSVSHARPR
Summary of the method: (§1)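 Incorporation of [3H]UTP (0.284 μM), alongside 20 μM each CTP and ATP, into RNA copied from a 5 nM 2.1 kb genotype 1b negative-strand template was measured after 3 h at 30° C using purified His-tagged NS5B truncated at residue 570. Product was spermine-precipitated, filtered and scintillation-counted; nonlinear regression gave IC50.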

[2] = target: T2, HCV NS5B polymerase 1a-H77-C316Y (Hepatitis C virus genotype 1a, UniProt P27958, C2736Y); experiment: biochemical; design: species or system HCV genotype 1a
T2 construct: six-histidine tag; made in house; host or cells: E. coli
T2 sequence (P27958 2421-2990 C2736Y): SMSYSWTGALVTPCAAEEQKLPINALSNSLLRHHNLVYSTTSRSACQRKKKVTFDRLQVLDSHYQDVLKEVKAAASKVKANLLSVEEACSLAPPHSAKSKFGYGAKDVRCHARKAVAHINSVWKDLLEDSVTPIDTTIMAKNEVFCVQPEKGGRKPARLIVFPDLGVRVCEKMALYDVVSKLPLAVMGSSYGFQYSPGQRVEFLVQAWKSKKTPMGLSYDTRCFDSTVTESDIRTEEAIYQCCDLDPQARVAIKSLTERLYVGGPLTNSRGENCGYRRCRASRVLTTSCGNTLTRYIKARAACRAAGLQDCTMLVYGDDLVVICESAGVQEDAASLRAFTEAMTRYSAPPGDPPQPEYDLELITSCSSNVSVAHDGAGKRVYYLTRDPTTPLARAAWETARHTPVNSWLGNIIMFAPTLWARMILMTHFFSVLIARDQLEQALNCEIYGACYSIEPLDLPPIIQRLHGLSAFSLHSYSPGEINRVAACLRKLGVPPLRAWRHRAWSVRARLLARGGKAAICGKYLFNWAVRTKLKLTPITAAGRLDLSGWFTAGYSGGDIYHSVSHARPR
Summary of the method: as §1

[3] = test system: HCV NS5B polymerase 1a-H77-C316Y; experiment: biochemical; design: species or system HCV genotype 1a; conditions: ratio of enzyme IC50s, 1a H77-C316Y / 1a H77
Summary of the method: as §1

[4] = target: T3, HCV NS5B polymerase 1b BK strain (Hepatitis C virus genotype 1b, UniProt P26663); experiment: HCV NS5B polymerase enzymatic inhibition assay, strain 1b BK; format: biochemical; conditions: enzyme, strain 1b BK; read-out: HCV Polymerase Strain 1b BK IC50
T3 construct: six-histidine tag; made in house; host or cells: E. coli
T3 sequence (P26663 2420-2989): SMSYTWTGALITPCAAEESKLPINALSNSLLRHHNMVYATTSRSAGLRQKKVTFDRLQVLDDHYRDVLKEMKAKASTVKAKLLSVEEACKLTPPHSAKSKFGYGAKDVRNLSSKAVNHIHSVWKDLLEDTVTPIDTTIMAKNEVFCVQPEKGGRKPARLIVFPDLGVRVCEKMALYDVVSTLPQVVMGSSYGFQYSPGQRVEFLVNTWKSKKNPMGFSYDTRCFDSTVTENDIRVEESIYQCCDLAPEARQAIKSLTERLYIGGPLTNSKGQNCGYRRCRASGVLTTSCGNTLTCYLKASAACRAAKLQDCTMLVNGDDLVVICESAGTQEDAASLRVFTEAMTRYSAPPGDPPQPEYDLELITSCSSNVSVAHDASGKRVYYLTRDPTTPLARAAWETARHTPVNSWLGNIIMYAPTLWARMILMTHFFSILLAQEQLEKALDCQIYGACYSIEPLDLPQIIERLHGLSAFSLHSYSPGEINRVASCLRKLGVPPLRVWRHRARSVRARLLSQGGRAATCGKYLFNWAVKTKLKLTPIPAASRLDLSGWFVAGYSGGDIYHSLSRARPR
Summary of the method: as §1

[5] = test system: HCV 1a-H77 subgenomic replicon; experiment: microbe, parasite or virus in culture; format: cell-based, HCV genotype 1a; conditions: Hepatitis C virus, stable replicon
[6] = test system: HCV 1b-BB7 subgenomic replicon; experiment: microbe, parasite or virus in culture; format: cell-based, HCV genotype 1b; conditions: Hepatitis C virus, stable replicon
[7] = test system: chimeric replicon with 2a-J6CF-derived NS5B; experiment: microbe, parasite or virus in culture; format: cell-based, HCV genotype 2a; conditions: Hepatitis C virus, read-out: 2a chimera 5% FBS EC50
[8] = test system: chimeric replicon with genotype 2b NS5B; experiment: microbe, parasite or virus in culture; format: cell-based, HCV genotype 2b; conditions: Hepatitis C virus, read-out: 2b chimera 5% FBS EC50
[9] = test system: chimeric replicon with genotype 3a NS5B; experiment: microbe, parasite or virus in culture; format: cell-based, HCV genotype 3a; conditions: Hepatitis C virus, read-out: 3a chimera 5% FBS EC50
[10] = test system: chimeric replicon with genotype 4a NS5B; experiment: microbe, parasite or virus in culture; format: cell-based, HCV genotype 4a; conditions: Hepatitis C virus, read-out: 4a chimera 5% FBS EC50
[11] = 5% FBS, absence of human plasma, read-out: Stable Replicon 1a H77 5% FBS EC50
[12] = strain 1a H77, 5% FBS + 40% human plasma, read-out: 1a H77 5% FBS + 40% Human Plasma EC50
[13] = strain 1a H77, 5% FBS, no human plasma, read-out: 1a H77 5% FBS EC50
[14] = strain 1a H77, 5% FBS, read-out: 1a H77 5% FBS EC50
[15] = strain 1b BB7, 5% FBS + 40% human plasma, read-out: 1b BB7 5% FBS + 40% Human Plasma EC50
[16] = strain 1b BB7, 5% FBS, no human plasma, read-out: 1b BB7 5% FBS EC50
[17] = strain 1b BB7, 5% FBS, read-out: 1b BB7 5% FBS EC50

| Compound | pIC50 [1] | pIC50 [2] | C316Y/1a Fold Resistance [3] [fold] | pIC50 [4] | pEC50 [5, 11] | pEC50 [5, 12] | pEC50 [5, 13] | pEC50 [5, 14] | pEC50 [6, 15] | pEC50 [6, 16] | pEC50 [6, 17] | pEC50 [7] | pEC50 [8] | pEC50 [9] | pEC50 [10] |
| --- | --- | --- | --- | --- | --- | --- | --- | --- | --- | --- | --- | --- | --- | --- | --- |
| CS(=O)(=O)N(CCC(F)(F)F)c1cc2oc(-c3ccc(F)cc3)c(C3=NOCCN3)c2cc1C1CC1 [Example 118, N-[5-cyclopropyl-3-(5,6-dihydro-4H-1,2,4-oxadiazin-3-yl)-2-(4-fluorophenyl)-1-benzofuran-6-yl]-N-(3,3,3-trifluoropropyl)methanesulfonamide] | 8.23 | 6.94 | 19 | 7.31 | 7.70 | 6.78 | 7.70 | 7.70 | 6.60 | 7.59 | 7.59 | 6.64 | 6.32 | 7.33 | 6.35 |
| CS(=O)(=O)N(CCCn1cccc1)c1cc2oc(-c3ccc(F)cc3)c(C3=NOCCN3)c2cc1C1CC1 [Example 119, N-[5-cyclopropyl-3-(5,6-dihydro-4H-1,2,4-oxadiazin-3-yl)-2-(4-fluorophenyl)-1-benzofuran-6-yl]-N-[3-(1H-pyrrol-1-yl)propyl]methanesulfonamide] | 8.15 | 7.39 | 6 | 7.42 | 7.71 | 6.61 | 7.71 | 7.71 | 6.89 | 7.77 | 7.77 | 7.10 | 6.72 | 7.52 | 6.85 |
| CS(=O)(=O)N(CCCCC(F)=C(F)F)c1cc2oc(-c3ccc(F)cc3)c(C3=NOCCN3)c2cc1C1CC1 [Example 120, N-[5-cyclopropyl-3-(5,6-dihydro-4H-1,2,4-oxadiazin-3-yl)-2-(4-fluorophenyl)-1-benzofuran-6-yl]-N-(5,6,6-trifluorohex-5-en-1-yl)methanesulfonamide] | 8.30 | 7.55 | 6 | 7.33 | 7.76 | 6.72 | 7.76 | 7.76 | 6.72 | 7.74 | 7.74 | 6.90 | 6.80 | 7.44 | 7.09 |
| CC(C)(O)CCN(c1cc2oc(-c3ccc(F)cc3)c(C3=NOCCN3)c2cc1C1CC1)S(C)(=O)=O [Example 125, N-[5-cyclopropyl-3-(5,6-dihydro-4H-1,2,4-oxadiazin-3-yl)-2-(4-fluorophenyl)-1-benzofuran-6-yl]-N-(3-hydroxy-3-methylbutyl)methanesulfonamide] | 7.96 | 6.95 | 10 | 7.22 | 7.90 | 6.81 | 7.90 | 7.90 | 6.46 | 7.70 | 7.70 | 6.65 | 6.74 | 7.30 | 7.07 |
| CN(C)CCCN(c1cc2oc(-c3ccc(F)cc3)c(C3=NOCCN3)c2cc1C1CC1)S(C)(=O)=O [Example 127, N-[5-cyclopropyl-3-(5,6-dihydro-4H-1,2,4-oxadiazin-3-yl)-2-(4-fluorophenyl)-1-benzofuran-6-yl]-N-[3-(dimethylamino)propyl]methanesulfonamide] | 7.60 | 6.18 | 26 | 6.52 | 7.19 | 6.91 | 7.19 | 7.19 | 7.05 | 7.68 | 7.68 | 6.46 | 6.51 | 7.24 | 6.09 |
| CS(=O)(=O)N(CCN1CCCC1)c1cc2oc(-c3ccc(F)cc3)c(C3=NOCCN3)c2cc1C1CC1 [Example 128, N-[5-cyclopropyl-3-(5,6-dihydro-4H-1,2,4-oxadiazin-3-yl)-2-(4-fluorophenyl)-1-benzofuran-6-yl]-N-[2-(pyrrolidin-1-yl)ethyl]methanesulfonamide] | 7.34 | 6.00 | 22 | 6.18 | 6.79 | 6.42 | 6.79 | 6.79 | 6.57 | 7.36 | 7.36 | 6.16 | 6.08 | 6.67 | < 6.00 |
